One data set has as its system K562. The data set can be described thus: Survival rate (CCK-8 assay) of CML cell line K562. It is filed as cell-based. To be noted: imatinib 0.6 μM. The method, then: (§1) CML cell lines (K562 and CML-T1 cell line) and a normal lymphoblastoid cell line (LCL) were inoculated into a 96-well plate in which DMEM medium containing 10% FBS, 100 units/mL penicillin, and […] streptomycin at a concentration of 3×10^3 cells/well and cultured under the conditions of 37° C. and 5% CO2.
(§2) In particular, the siRNAs used had the nucleotide sequences of SEQ ID NOS: 5 and 176 to 178.
(Tetrazolium dyes change colour on reduction, which living cells bring about.)

The test system of another data set is CML-T1 cell line. The data set can be described thus: Survival rate (CCK-8 assay) of CML cell line CML-T1. The class given is cell-based. Conditions: imatinib 0.6 μM. As to the method:
as §1, §2

For another data set, the system named is LAMA-84 cells. The data set can be described thus: Cell cycle analysis (PI staining, FACS) in LAMA-84 cells. It is filed as cell-based. Conditions: vs negative control siRNA. As to the method: (§3) CML cell lines (K562 cells and LAMA-84 cells) were treated with the two kinds of siRNAs having the nucleotide sequences of SEQ ID NOS: 5 and 176 to 178 (negative control siRNA or IS3 siRNA) and the cells were immobilized. These cells were subjected to PI staining and applied to FACSVerse (BD Biosciences, Franklin Lakes, N.J., U.S.A.) so as to measure the percentage of the cells located in the G0/G1 phase (FIGS. 11A and 11B).

In data set [1] the test system is K562 cell line which induced the T315I mutation. Description: Survival rate (CCK-8 assay) of cell line with induced T315I somatic mutation. The class given is cell-based. As to the method:
A cell line in which a somatic mutation of T315I was induced was prepared using the Clontech Guide-it CRISPR/Cas9 System and inoculated into a 96-well plate in which DMEM medium containing 10% FBS, 100 units/mL penicillin, and 100 μg/mL streptomycin at a concentration of 3×10^3 cells/well and cultured under the conditions of 37° C. and 5% CO2.

The subject of another data set is phospho CrkL/CrkL ratio. Description: Phospho-CRKL analysis (Phospho-CrkL (Tyr207) colorimetric cell-based ELISA) in K562. As to the method:
A ratio of phosphorylated CRKL and CRKL (phospho CrkL/CrkL ratio) of the treated cell line was calculated using the Phospho-CrkL (Tyr207) Colorimetric Cell-Based enzyme linked immunosorbent assay (ELISA) kit and the results were compared (FIG. 10).
(ELISA stands for enzyme-linked immunosorbent assay.)

For data set [2], the system named is solid cancer cell lines (IMR-32, SNU-478, MG-63, Hs578T, U-87MG, SNU-886, MIA-PaCa-2, SK-MEL-2, RD, Hs 746T, J-82). The data set can be described thus: Survival rate (CCK-8 assay) of solid cancer cell lines. It is filed as cell-based. To be noted: 100 pmol siRNA per 200,000 cells, up to 72 hours; vs siCTRL; all 11 solid cancer lines. The source says:
(§4) Specifically, the cancer cell lines of hematopoietic tissue or lymphatic tissue (e.g., LAMA84 (chronic myeloid leukemia in blast crisis), KG-1 (acute myeloid leukemia, FAB M2), HL-60 (acute myeloid leukemia, FAB M2), NB-4 (acute promyelocytic leukemia), MOLM13 (acute myeloid leukemia, FAB M5B), CCRF-CEM (T acute lymphoblastic leukemia), and U-937 (histiocytic lymphoma)); solid cancer cell lines (e.g., IMR-32 (neuroblastoma, KCLB, 10127), SNU-478 (ampulla of vater adenocarcinoma), MG-63 (osteosarcoma), Hs578T (breast invasive ductal carcinoma, KCLB, 30126), U-87MG (glioblastoma), SNU-886 (hepatocellular carcinoma), MIA-PaCa-2 (pancreatic ductal adenocarcinoma), SK-MEL-2 (malignant melanoma), RD (embryonal rhabdomyosarcoma), Hs 746T (gastric adenocarcinoma), and J-82 (bladder carcinoma)) were dispensed into a 96-well plate at a concentration of 3,000 to 5,000 cell lines/well and incubated in a wet incubator (37° C. and 5% CO2) having an environment similar to that of the human body and cultured for 3 days.
(§5) Each of the cultured cells was treated with the two kinds of siRNAs having the nucleotide sequences of SEQ ID NOS: 5 and 176 to 178 (negative control siRNA (siCTRL) or IS3 siRNA) at a concentration of 100 pmol based on 200,000 cells, cultured for up to 72 hours, and the survival rates of these cells were compared by the CCK-8 assay (FIGS. 12A to 12C).

Data set [3] concerns cancer cell lines of hematopoietic tissue or lymphatic tissue (LAMA84, KG-1, HL-60, NB-4, MOLM13, CCRF-CEM, U-937). Description: Survival rate (CCK-8 assay) of cancer cell lines of hematopoietic or lymphatic tissue. It is filed as cell-based. Conditions: 100 pmol siRNA per 200,000 cells, up to 72 hours; vs siCTRL; all 7 hematopoietic/lymphatic lines.
Source text: as §4, §5

The next data set deals with K562 cells. The data set can be described thus: Cell cycle analysis (PI staining, FACS) in K562 cells. The class given is cell-based. To be noted: vs negative control siRNA. As to the method:
as §3

Data set [4] concerns normal lymphoblastoid cell line (LCL). Description: Survival rate (CCK-8 assay) of normal lymphoblastoid cell line. It is filed as cell-based. As to the method:
as §1, §2

Take `Cc1ccc(NC(=O)c2ccc(CN3CCN(C)CC3)cc2)cc1Nc1nccc(-c2cccnc2)n1` [imatinib, reference compound]: the “survival rate of the cell line” value in the data set with K562 and in the data set on CML-T1 cell line was “reduced” each time.
As for “HMGCLL1 IS3 siRNA: siRNA to HMGCLL1 isoform 3: sense GGUACCACAGGUUGCUGCU (SEQ ID NO: 178), antisense AGCAGCAACCUGUGGUACC (SEQ ID NO: 5) (listed as RNA, chemistry not given here)”, the “percentage of the cells located in the G0/G1 phase” value in the data set on LAMA-84 cells and in the data set with K562 cells was “increased” in each case. Besides, the “survival rate of the cell line” value in the data set with K562 is given as “reduced”; in data set [1] (siRNA in combination with first generation anticancer agent (imatinib 10 nM)), “further significantly reduced”; in data set [1] (siRNA in combination with second generation anticancer agent (nilotinib or dasatinib 10 nM)), “further significantly reduced”; in data set [1] (siRNA used alone) it was “reduced”; in the data set on CML-T1 cell line it was “reduced”; in data set [4], “not affected”. Besides, the “phospho CrkL/CrkL ratio” value in the data set on phospho CrkL/CrkL ratio (HMGCLL1 IS3 siRNA and imatinib in combination) is “reduced to the lowest level”; in the data set on phospho CrkL/CrkL ratio (treated individually), “reduced to similar levels”. The “survival rate of each cell line” value in [2] and in [3] was “significantly reduced” in each case.

Values taken from US20180355359A1, “METHODS FOR DETERMINING RESISTANCE TO ANTICANCER THERAPY AND COMPOSITION USED THEREFOR” (SD GENOMICS CO., LTD., priority 2015, published 2018).
